Assay results: ChEMBL document CHEMBL5335825, “Multi-target potential of newly designed tacrine-derived cholinesterase inhibitors: Synthesis, computational and pharmacological study” (Bioorg Med Chem, 2024)
Activity calls are given as the source filed them. The rule behind the calls is not given here.

Key:
Cholinesterase = Cholinesterase (Equus caballus, UniProt P81908); assay: Inhibition of equine serum BuChE using butyrylthiocholine iodide as substrate preincubated for 10 mins followed by substrate addition and measured every min for 10 mins by DTNB based Ellman's assay
Cholinesterase, sequence (P81908 whole entry): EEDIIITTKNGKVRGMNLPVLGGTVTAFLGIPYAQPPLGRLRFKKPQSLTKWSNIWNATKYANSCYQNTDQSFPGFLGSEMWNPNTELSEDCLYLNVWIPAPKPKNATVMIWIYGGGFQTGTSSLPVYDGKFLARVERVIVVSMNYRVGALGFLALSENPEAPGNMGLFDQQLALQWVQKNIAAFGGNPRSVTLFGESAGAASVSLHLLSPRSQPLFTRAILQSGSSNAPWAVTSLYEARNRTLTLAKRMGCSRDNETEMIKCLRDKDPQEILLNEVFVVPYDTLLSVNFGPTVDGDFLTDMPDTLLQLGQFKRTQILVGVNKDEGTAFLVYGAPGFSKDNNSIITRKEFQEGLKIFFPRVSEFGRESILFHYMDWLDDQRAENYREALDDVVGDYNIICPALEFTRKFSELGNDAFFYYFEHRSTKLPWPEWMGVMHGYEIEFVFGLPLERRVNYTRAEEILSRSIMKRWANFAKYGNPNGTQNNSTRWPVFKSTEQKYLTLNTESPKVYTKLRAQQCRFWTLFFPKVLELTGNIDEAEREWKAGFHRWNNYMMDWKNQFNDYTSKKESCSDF

[1] = Selectivity index, ratio of IC50 for cytotoxicity against human SH-SY5Y cells to IC50 for inhibition of equine serum BuChE
[2] = Selectivity index, ratio of IC50 for cytotoxicity against human SH-SY5Y cells to IC50 for inhibition of electric eel AChE
Acetylcholinesterase = Acetylcholinesterase (Electrophorus electricus, UniProt O42275); assay: Inhibition of electric eel AChE using acetylthiocholine iodide as substrate preincubated for 10 mins followed by substrate addition and measured every min for 10 mins by DTNB based Ellman's assay
Acetylcholinesterase, sequence (O42275 whole entry): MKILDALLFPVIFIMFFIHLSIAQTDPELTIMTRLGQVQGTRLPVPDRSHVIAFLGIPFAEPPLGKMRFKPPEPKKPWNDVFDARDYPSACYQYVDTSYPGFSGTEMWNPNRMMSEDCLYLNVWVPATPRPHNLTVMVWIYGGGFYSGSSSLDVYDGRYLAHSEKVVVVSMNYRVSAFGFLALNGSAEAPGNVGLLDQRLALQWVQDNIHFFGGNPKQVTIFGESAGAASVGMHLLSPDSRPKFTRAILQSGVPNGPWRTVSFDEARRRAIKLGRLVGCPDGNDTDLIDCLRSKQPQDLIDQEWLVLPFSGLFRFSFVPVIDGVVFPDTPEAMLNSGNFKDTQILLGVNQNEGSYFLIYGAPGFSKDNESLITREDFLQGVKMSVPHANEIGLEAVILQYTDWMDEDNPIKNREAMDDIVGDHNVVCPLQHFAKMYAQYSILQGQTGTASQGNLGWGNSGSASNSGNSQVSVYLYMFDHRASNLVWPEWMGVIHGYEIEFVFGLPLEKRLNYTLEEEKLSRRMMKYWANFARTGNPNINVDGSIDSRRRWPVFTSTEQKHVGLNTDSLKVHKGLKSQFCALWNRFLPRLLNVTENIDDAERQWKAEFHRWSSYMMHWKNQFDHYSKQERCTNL

in vitro = conditions: human, SH-SY5Y cells
Description: Cytotoxicity against human SH-SY5Y cells assessed as reduction in cell viability incubated for 24 hrs by crystal violet staining based analysis

[3] = biological target: Cholinesterase (Equus caballus) (UniProt P81908); assay: Mixed type inhibition of equine serum BuChE using varying concentrations of butyrylthiocholine iodide as substrate assessed as decrease in Vmax with varied Km by Lineweaver-Burk plot analysis
Cholinesterase (Equus caballus), sequence (P81908 whole entry): as the sequence (P81908 whole entry) above

[4] = biological target: Acetylcholinesterase (Electrophorus electricus) (UniProt O42275); assay: Mixed type inhibition of electric eel AChE using varying concentrations of acetylthiocholine iodide as substrate assessed as decrease in Vmax with varied Km by Lineweaver-Burk plot analysis
Acetylcholinesterase (Electrophorus electricus), sequence (O42275 24-633 limits assumed): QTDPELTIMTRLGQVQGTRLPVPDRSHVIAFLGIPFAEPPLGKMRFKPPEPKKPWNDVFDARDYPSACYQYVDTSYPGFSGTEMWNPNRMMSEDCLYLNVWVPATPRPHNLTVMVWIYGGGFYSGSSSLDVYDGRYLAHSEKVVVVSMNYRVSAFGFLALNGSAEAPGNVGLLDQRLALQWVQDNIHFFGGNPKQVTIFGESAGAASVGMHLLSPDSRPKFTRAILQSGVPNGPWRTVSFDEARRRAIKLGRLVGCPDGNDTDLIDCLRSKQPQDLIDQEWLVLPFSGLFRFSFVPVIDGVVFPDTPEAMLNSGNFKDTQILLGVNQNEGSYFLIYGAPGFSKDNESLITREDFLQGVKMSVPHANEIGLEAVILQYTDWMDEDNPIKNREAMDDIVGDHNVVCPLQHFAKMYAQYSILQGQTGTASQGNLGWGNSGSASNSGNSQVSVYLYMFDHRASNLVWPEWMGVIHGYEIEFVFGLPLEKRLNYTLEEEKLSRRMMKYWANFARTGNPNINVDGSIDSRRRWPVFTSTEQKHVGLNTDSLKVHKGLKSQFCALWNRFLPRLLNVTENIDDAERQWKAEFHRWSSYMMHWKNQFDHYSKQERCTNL

Structure (SMILES) | IC50 (Cholinesterase) | Ratio IC50 [1] | Ratio IC50 [2] | IC50 (Acetylcholinesterase) | IC50 at 24 h (in vitro) | inhibition [3] | inhibition [4]
O=C(NCCCCCNc1c2c(nc3ccccc13)CCCC2)C1CCN(C(=O)c2ccccc2Cl)CC1 | 82.5 nM | 2247.9 | 1188.8 | 156 nM | 186000 nM | Active | Active
O=C(NCCCCCNc1c2c(nc3ccccc13)CCCC2)C1CCN(C(=O)c2cccc(F)c2)CC1 | 73.5 nM | 789 | 417.2 | 139 nM | 58000 nM | – | –
O=C(NCCCCCNc1c2c(nc3ccccc13)CCCC2)C1CCN(C(=O)c2cccnc2)CC1 | 98.5 nM | – | – | 162 nM | – | – | –
COc1ccc(C(=O)N2CCC(C(=O)NCCCCCNc3c4c(nc5ccccc35)CCCC4)CC2)cc1 | 246 nM | 605.3 | 667.9 | 222 nM | 149000 nM | – | –
COc1cccc(C(=O)N2CCC(C(=O)NCCCCCNc3c4c(nc5ccccc35)CCCC4)CC2)c1 | 60.5 nM | 1546.3 | 326 | 287 nM | 93600 nM | – | –
O=C(NCCCCCNc1c2c(nc3ccccc13)CCCC2)C1CCN(C(=O)c2ccc(F)cc2)CC1 | 154 nM | – | – | 370 nM | – | – | –
O=C(NCCCCCNc1c2c(nc3ccccc13)CCCC2)C1CCN(C(=O)c2ccccc2F)CC1 | 34 nM | – | – | 241 nM | 192000 nM | – | –
COc1ccccc1C(=O)N1CCC(C(=O)NCCCCCNc2c3c(nc4ccccc24)CCCC3)CC1 | 48 nM | 2266.7 | 480.4 | 226 nM | 109000 nM | – | –
O=C(NCCCCCNc1c2c(nc3ccccc13)CCCC2)C1CCN(C(=O)c2cccc(Cl)c2)CC1 | 70.5 nM | 2082.3 | 926.2 | 159 nM | 147000 nM | – | –
O=C(NCCCCCNc1c2c(nc3ccccc13)CCCC2)C1CCN(C(=O)c2ccncc2)CC1 | 84 nM | 1635.1 | 472 | 291 nM | 137000 nM | – | –
O=C(NCCCCCNc1c2c(nc3ccccc13)CCCC2)C1CCN(C(=O)c2ccccc2)CC1 | 46.5 nM | 1490.3 | 589.8 | 117 nM | 69300 nM | – | –
O=C(NCCCCCNc1c2c(nc3ccccc13)CCCC2)C1CCN(C(=O)c2ccccn2)CC1 | 324 nM | 347.1 | 247.1 | 455 nM | 112000 nM | – | –
O=C(NCCCCCNc1c2c(nc3ccccc13)CCCC2)C1CCN(C(=O)c2ccc(Cl)cc2)CC1 | 114 nM | 268.5 | 69.4 | 443 nM | 30700 nM | – | –
